{"source": "patent US20040009921A1", "about": "“Methods and compositions for the treatment of cancer” (Allergan, Inc., priority 2002, published 2004)", "key": {"[1]": {"system": "β-catenin", "assay": "Western blotting of β-catenin in CV-1 and Hela cells", "format": "cell-based", "conditions": "CV1 and Hela cells, 0.1 μM, 17 hours"}, "[2]": {"target": "T1, RARα (Homo sapiens, UniProt P10276)", "T1 construct": "expressed in transfected cells; host or cells: HEK293", "T1 sequence (P10276 1-462)": "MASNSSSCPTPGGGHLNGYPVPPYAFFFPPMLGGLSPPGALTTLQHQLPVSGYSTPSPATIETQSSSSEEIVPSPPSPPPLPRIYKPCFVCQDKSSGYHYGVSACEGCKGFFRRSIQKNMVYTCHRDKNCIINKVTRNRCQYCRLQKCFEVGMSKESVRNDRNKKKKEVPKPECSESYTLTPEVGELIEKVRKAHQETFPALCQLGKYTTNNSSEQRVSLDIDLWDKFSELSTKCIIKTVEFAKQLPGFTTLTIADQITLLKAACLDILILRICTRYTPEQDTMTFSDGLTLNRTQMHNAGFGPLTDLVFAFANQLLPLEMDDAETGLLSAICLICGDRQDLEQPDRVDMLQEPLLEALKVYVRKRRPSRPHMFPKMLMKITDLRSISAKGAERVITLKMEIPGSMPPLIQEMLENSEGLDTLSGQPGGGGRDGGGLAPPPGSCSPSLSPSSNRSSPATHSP", "assay": "Western blotting of RAR protein in transfected HEK293 cells", "format": "cell-based", "conditions": "HEK293 co-expressing RXRα with RARα", "procedure": "HEK293 cells transfected with expression vectors for β-catenin (4 μg) and RXRs (2 μg) or RARs (2 μg) and treated with ligands at concentrations indicated at the top of each gel. Protein levels were detected by Western blotting as shown in this figure. β-catenin and RARs were detected by HRP-conjugated antibodies against their V5 tag. RXRs were detected by HRP-conjugated antibodies against their Flag tag. […] In this experiment, the amount of expression vectors for RXRα and RARs used in transfection was 1 μg.\nHEK293 cells were seeded at a density of 2×10 per dish were seeded into 100-mm dishes and cultured overnight in DMEM containing 10% FBS. Cells were transfected with 1-4 μg of various cDNA or parental expression vectors (8 μg of DNA in total) using Lipofectamine®. Five hours after transfection, cells were fed with fresh culture media DMEM containing 10% charcoal-treated FBS with vehicle DMSO or retinoids prepared in DMSO. […]\nTotal cell lysates were homogenized by passing through a QIAshredder® (Qiagen) and cleared from insoluble materials by centriftigation at 12,000 g. Protein concentration was determined using a Bradford total protein assay kit (Bio-Rad). […]"}, "[3]": {"target": "T2, RXRα and ΔNβ-catenin interaction (Homo sapiens, UniProt P19793)", "T2 sequence (P19793 1-462)": "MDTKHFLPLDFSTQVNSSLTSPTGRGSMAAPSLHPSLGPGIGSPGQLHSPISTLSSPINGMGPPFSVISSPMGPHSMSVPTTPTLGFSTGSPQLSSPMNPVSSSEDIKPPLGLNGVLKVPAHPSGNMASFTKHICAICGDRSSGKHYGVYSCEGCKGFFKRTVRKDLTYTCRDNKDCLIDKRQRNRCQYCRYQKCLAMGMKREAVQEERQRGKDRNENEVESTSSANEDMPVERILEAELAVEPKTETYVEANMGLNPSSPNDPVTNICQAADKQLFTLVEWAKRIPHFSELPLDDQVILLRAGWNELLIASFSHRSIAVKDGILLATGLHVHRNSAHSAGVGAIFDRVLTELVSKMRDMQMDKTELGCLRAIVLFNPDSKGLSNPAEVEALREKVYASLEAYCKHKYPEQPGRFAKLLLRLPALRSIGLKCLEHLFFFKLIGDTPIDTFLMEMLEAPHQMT", "T2 sequence (P35222 51-781 partner)": "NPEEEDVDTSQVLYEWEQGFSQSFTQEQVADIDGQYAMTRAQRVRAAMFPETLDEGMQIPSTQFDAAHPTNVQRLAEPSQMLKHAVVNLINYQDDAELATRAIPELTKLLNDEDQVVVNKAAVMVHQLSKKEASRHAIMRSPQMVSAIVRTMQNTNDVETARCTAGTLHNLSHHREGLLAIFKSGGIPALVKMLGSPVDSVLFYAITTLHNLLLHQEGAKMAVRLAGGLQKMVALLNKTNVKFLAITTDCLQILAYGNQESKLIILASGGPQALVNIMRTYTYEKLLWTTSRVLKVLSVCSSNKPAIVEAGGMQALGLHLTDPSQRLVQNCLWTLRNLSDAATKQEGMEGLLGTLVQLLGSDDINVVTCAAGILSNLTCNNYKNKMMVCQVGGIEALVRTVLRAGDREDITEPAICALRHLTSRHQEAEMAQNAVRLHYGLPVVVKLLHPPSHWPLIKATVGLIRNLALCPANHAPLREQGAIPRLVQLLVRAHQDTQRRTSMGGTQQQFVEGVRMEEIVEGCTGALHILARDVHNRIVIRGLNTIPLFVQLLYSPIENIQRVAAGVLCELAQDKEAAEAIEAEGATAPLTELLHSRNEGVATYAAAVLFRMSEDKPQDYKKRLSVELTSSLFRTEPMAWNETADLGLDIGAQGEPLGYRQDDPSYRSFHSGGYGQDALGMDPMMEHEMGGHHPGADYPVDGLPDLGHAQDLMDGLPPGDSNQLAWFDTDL", "assay": "In vivo protein crosslinking and immunoprecipitation", "format": "cell-based", "conditions": "HEK293, 1 μM AGN 4204 or vehicle before DSP crosslinking", "procedure": "HEK293 cells were transfected with a combination of 8 μg of ΔNβ-catenin (C) and 4 μg of RXRα. […] Cell lysates were subjected to immunoprecipitation using antibodies against the Flag tag in RXRα. Crosslinked molecules in immunoprecipitates were dissociated by reduction with β-mercaptoethanol before Western blotting analysis using HRP-conjugated antibodies against the v5 tag in ΔNβ-catenin (Top panel).\nHEK293 cells were cultured to about 80% confluence in 150-mm Biocoat poly-D-Lysine plates (VWR Cat#354550), and then transfected with expression vectors for ΔN-β-catenin, and RXRα using Lipofectamine® Transfection Reagent (Invitrogen). Cells were then cultured in high glucose DMEM medium containing 10% activated charcoal-extracted fetal bovine serum.\nThe reaction was quenched by adding Tris buffer at pH7.5 to a final concentration of 20 mM. […]\nTo determine whether RXRs and β-catenin interact with each other, HEK293 cells were transfected with expression vectors for RXRα and/or ΔNβ-catenin. […] After completion of the cross-linking reaction, cell extracts were prepared and analyzed by immunoprecipitation using antibodies against the FLAG epitope in an RXRα-FLAG fusion protein, followed by Western blotting analysis using antibodies against the V5 Tag in ΔNβ-catenin. […]"}, "[4]": {"system": "β-catenin-mediated gene transactivation (TCF/LEF reporter Topflash)", "assay": "Topflash reporter gene assay in HEK293 cells and stable lines RBC, CAT", "format": "cell-based, human", "method": "Cultured cells were transfected with 100 ng of reporter gene Topflash® together with expression vectors indicated under each graph. […] (A) Data from HEK293 cells co-transfected with wild type or mutant β-catenin (200 ng) and RXRα (20 ng). (B) CAT, a stable cell line that overexpresses β-catenin (left panel). RBC, a stable cell line that overexpresses both RXRα and β-catenin. (C) SW480, a colorectal cancer cell line, was transfected with 100 ng of Topflash®. The amount of RXRα cotransfected was indicated below the X axis. Reporter activity on the Y axis is expressed as either Luciferase Unit or percentage of activity in cells transfected with Topflash® alone.\nFor transfection of the HEK293 cell line, cells were seeded at a density of 50,000 cells per well in 24-well plates coated with poly-D-Lysine (Becton Dickinson). After 24 hours, the luciferase-based reporter plasmids and expression vectors were cotransfected into cells using Fugene according to the manufacturer's instruction (Roche Applied Science). To monitor the efficiency of transfection, either 15 ng of phRG-TK Renilla or 100 ng of CMX-LacZ DNA were cotransfected. […] Harvested cells were lysed, and luciferase activity was measured as previously described (de Wet, J. R., Wood, K. V., DeLuca, M., Helinski, D. R., Subramani, S. (1987) Mol. Cell. Biol. 7, 725-737). In cells transfected with the LacZ control gene, β-galactosidase activity was measured by standard colorimetric assays. Renilla reniformis […] activity was determined using the Dual-Luciferase Reporter 100 Assay System (Promega Corporation, 2800 Woods Hollow Road, Madison Wis. USA 53711). The experimental reporter gene activity was normalized against either β-galactosidase or Renilla GFP activity. Values represent the mean +/− SEM of quadruplicate determinations.\nTo investigate whether RXR and its ligands affect β-catenin-mediated gene transactivation, the APC-positive human HEK293 cells were transfected with the reporter gene Topflash®. This reporter gene contains multiple copies of responsive elements for the DNA-binding transcription activators, TCF/LEF, upstream of the basic luciferase reporter gene construct tk-Luc. The tk-Luc portion of he reporter plasmid consists of a minimal gene promoter from HSV tk gene and a coding sequence for luciferase. Transactivation of this reporter by TCF/LEF can be affected by endogenous as well as overexpressed β-catenin, which interacts with TCF/LEF as a co-activator."}}, "data": [{"smiles": "CC(/C=C/[C@@H]1C[C@]1(C)c1ccc2c(c1)C(C)(C)CCC2(C)C)=C\\C(=O)O", "note": "[AGN 4204]", "values": [{"measurement": "degradation of ΔNβ-catenin protein", "setting": "[1]", "result": "susceptible to RXR-mediated degradation"}, {"measurement": "degradation of RARα", "setting": "[2]", "result": "RXR-ligand-dependent degradation"}, {"measurement": "interaction between RXRα and ΔNβ-catenin (co-immunoprecipitation)", "setting": "[3]", "result": "ligand-independent"}, {"measurement": "Topflash reporter activity from endogenous β-catenin", "setting": "[4]; HEK293, endogenous β-catenin, 0.1 μM, 17 hours", "result": "moderately reduced"}, {"measurement": "ΔNβ-catenin mutant activity in transactivating Topflash", "setting": "[4]; HEK293, ΔNβ-catenin in the presence of RXRα", "result": "significantly impaired"}, {"measurement": "decrease in reporter activity", "setting": "[4]; HEK293 cotransfected with β-catenin and RXRα, 0.1 μM, 17 hours", "result": 90, "unit": "%"}, {"measurement": "decrease in reporter activity", "setting": "[4]; stable line CAT overexpressing only β-catenin, 0.1 μM, 17 hours", "result": 30, "unit": "%"}, {"measurement": "decrease in reporter activity", "setting": "[4]; stable line RBC expressing β-catenin and RXRα, 0.1 μM, 17 hours", "result": "decrease in the reporter activity was also observed"}]}]}
